{"source": "patent US20140187556A1", "about": "“ANTI-AMYLOID COMPOUNDS AND METHODS” (Treventis Corporation, priority 2011, published 2014)", "key": {"Aβ40": {"target": "T1, Aβ40 (Homo sapiens, UniProt P05067)", "T1 construct": "pre-treated Aβ40 (40 μM in 20 mM Tris, pH 7.4)", "T1 sequence (P05067 672-711 limits assumed)": "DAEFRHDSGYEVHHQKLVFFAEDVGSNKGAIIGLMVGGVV", "test": "Thioflavin T (ThT) Aβ aggregation assay", "format": "biochemical", "settings": "20 μM Aβ40, 37 degrees C", "summary_of_the_method": "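Aβ40 was HFIP-pretreated to remove preformed aggregates; 20 µM Aβ40 incubated with compound and 4 µM ThT in 20 mM Tris pH 7.4, 150 mM NaCl, 1% DMSO at 37 °C. Fluorescence (ex 450/em 480 nm) read every 15 min after shaking; inhibition judged by attenuated fluorescence rise versus DMSO controls.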"}, "[1]": {"test": "Metabolic stability in mouse liver microsomes", "format": "in vitro ADME", "settings": "1 μM compound, 0.5 mg/mL microsomal protein, 1 mM NADPH", "description": "This assay is used to determine the percent remaining and intrinsic clearance of a test compound incubated with pooled mouse liver microsomes in the presence of NADPH. Further details on this method may be found in Jeffrey P, et al., Utility of metabolic stability screening: comparison of in vitro and in vivo clearance. enobiotica. 2001 August-September; 31(8-9):591-8 and Lin J H, et al., Role of pharmacokinetics and metabolism in drug discovery and development. Pharmacol Rev. 1997; 49(4):403-49; each of which is hereby incorporated by reference. Test compound was formulated in 300 μL of DMSO at 10 mM and was diluted to 1 μM with final concentration of organic solvent <0.25% for the experiment. Pooled liver microsomes were prepared from male mice, with 1 mM NADPH. Test compound was incubated at 37 degrees Celsius in buffer containing 0.5 mg/mL microsomal protein; the reaction was initiated by adding cofactors and sampled at 0, 10, 20, 30, and 60 minutes. A positive control (5 μM testosterone) was incubated and initiated in parallel for quality control. Samples were analyzed using an LTQ-Orbitrap XL mass spectrometer; HRMS was used to determine the peak area response ratio (peak area corresponding to test compound or control divided by that of an analytical internal standard) without running a standard curve.\nResults were reported for selected compounds in the table of Example 1, as % test compound remaining after 60 minutes. Compounds which have less than about 5% remaining are not considered to be metabolically stable in mouse liver microsomes, while compounds with more than about 5% remaining are considered to be metabolically stable in mouse liver microsomes."}, "5xFAD mouse": {"tested_on": "5xFAD mouse", "test": "In vivo efficacy trial in the 5xFAD transgenic AD mouse model", "settings": "wildtype littermate mice", "source_text": "The 5xFAD mouse (B6SJL-Tg(SwFLon,PSEN1*M 146L*L286V)6799Vas/J; JAX #006554) overexpresses human APP(695) with the Swedish (K670N,M671L), Florida (I716V) and London (V717I) familial AD (FAD) mutations, as well as human presenilin 1 (PSI) with two FAD mutations (M 146L and L286V). These five mutations act additively, leading to large and rapid age-related increases in neuronal Aβ-40 and Aβ-42 peptides beginning at 2 months of age. […] Extra-cellular Aβ plaques are first observed in the hippocampus, subiculum, frontal cortex and spinal cord at 2-3 months of age and increase with age. No neurofibrillary tangles (tau) are observed in the brains of 5xFAD mice. […] Active astrocytes are commonly found surrounding β-amyloid plaques and levels of the pre-synaptic marker synaptophysin are decreased, indicating a decrease in synaptic connectivity to the 5xFAD mouse (Oakley et al., 2006). […] Age-related cognitive impairment in visuo-spatial working memory in the Y-maze occurs at 4-5 months of age. […]\nThe general procedure for an in vivo efficacy trial with 5xFAD mice is as follows. […] After behavioral testing, mice are sacrificed and their blood and brains assessed for Aβ levels."}, "[2]": {"test": "Blood-brain barrier penetration potential using MDR1-MDCK cell monolayers", "format": "in vitro ADME", "settings": "dog", "source_text": "This assay is used to determine the blood-brain barrier (BBB) penetration potential of a test compound using MDR1-MDCK cell monolayers. Further details on this method may be found in Taub M E, et al., Functional assessment of multiple Pglycoprotein (P-gp) probe substrates: Influence of cell line and modulator concentration on P-gp activity. Drug Metab Dispos. 2005 November; 33(11): 1679-87 and Wang Q, et al., Evaluation of the MDR-MDCK cell line as a permeability screen for the blood-brain barrier. Int J. Pharm. 2005 Jan. 20; 288(2):349-59; each of which is hereby incorporated by reference. Test compound was formulated in 300 μL of DMSO at 10 mM and diluted to 5 μM in HBSSg with maximum DMSO concentration not greater than 1%. Confluent monolayers of MDR1-MDCK cells, 7 to 11 days old, were used. A receiver well, having apical and basolateral sides at pH 7.4, was used with 1% BSA in modified Hanks buffer (HBSSg). Two monolayers were dosed with test compound in each direction (N=2). Apical side dosing was used for A-B assessment and basolateral side was used for B-A assessment; taken together, this information provides a bidirectional permeability potential. Apical and basolateral sides were sampled at 120 minutes and concentrations of test compound were determined using an LC-MS/MS method with a minimum 4 point calibration curve. Apparent permeability (Papp) in both directions (A-B and B-A) was calculated, as was the efflux ratio (Papp B-A)/(Papp A-B)."}}, "data": [{"molecule": "O=[N+]([O-])c1ccc(-c2cccc(C(O)C(F)(F)F)c2)cc1NCc1ccccc1", "note": "(stereo not drawn) [TRV 1140, 1-(3′-(benzylamino)-4′-nitro-[1,1′-biphenyl]-3-yl)-2,2,2-trifluoroethanol]", "values": [{"measurement": "IC50", "setting": "Aβ40", "value": "3.09 ± 0.21", "unit": "µM"}, {"measurement": "Stability in mouse liver microsomes (% test compound remaining after 60 min)", "setting": "[1]", "value": 34, "unit": "%"}, {"measurement": "behavioural performance, WT with compound versus WT with vehicle", "setting": "5xFAD mouse", "value": "no difference in behavioural performance"}, {"measurement": "Papp A→B at 120 min, 5 µM", "setting": "[2]; MDCK-MDR1, apical dosing, pH 7.4, read-out: Papp A-B × 10^−6 cm/s", "value": 15.3, "unit": "×10⁻⁶ cm/s"}, {"measurement": "Papp B→A at 120 min, 5 µM", "setting": "[2]; MDCK-MDR1, basolateral dosing, pH 7.4, read-out: Papp B-A × 10^−6 cm/s", "value": 12.4, "unit": "×10⁻⁶ cm/s"}, {"measurement": "efflux ratio at 120 min, 5 µM", "setting": "[2]; MDCK-MDR1, pH 7.4, read-out: Efflux ratio (Papp B-A)/(Papp A-B)", "value": 0.8}]}]}
